Measured values from patent publication US20240174690A1, “ANNULATED 2-AMINO-3-CYANO THIOPHENES AND DERIVATIVES FOR THE TREATMENT OF CANCER” (BOEHRINGER INGELHEIM INTERNATIONAL GMBH, priority 2021, published 2024).
Values after ≈ are worked out from the molar mass of the structure shown. Like-named read-outs stand apart in the source and are kept apart here.

Key:
[1] = system: KRAS G12D-dependent Ba/F3 cells; experiment: Ba/F3 proliferation assay, KRAS G12D; assay type: cell-based; conditions: Mus musculus, BaF3, 72 h, AlamarBlue
Procedure: Plasmids containing KRASG12 mutants (i.e. […], G12C, G12V) are obtained from GeneScript. To generate KRASG12-dependent Ba/F3 models, Ba/F3 cells are transduced with retroviruses containing vectors that harbor KRASG12 isoforms. Platinum-E cells (Cell Biolabs) are used for retrovirus packaging. Retrovirus is added to Ba/F3 cells. To ensure infection, 4 μg/mL polybrene is added and cells are spinfected. […] Cells with an infection efficiency of 10% to 20% are further cultivated and puromycin selection with 1 μg/mL is initiated. As a control, parental Ba/F3 cells are used to show selection status. Selection is considered successful when parental Ba/F3 cells cultures died. To evaluate the transforming potential of KRASG12 mutations, the growth medium is no longer supplemented with IL-3. Ba/F3 cells harboring the empty vector are used as a control. Approximately ten days before conducting the experiments, puromycin is left out.
Compounds are added using an Access Labcyte Workstation with a Labcyte Echo 550 or 555 accoustic dispenser. All treatments are performed in technical duplicates. […] AlamarBlue™ (ThermoFisher), a viability stain, is added and fluorescence measured in the PerkinElmer Envision HTS Multilabel Reader. The raw data are imported into and analyzed with the Boehringer Ingelheim proprietary software MegaLab (curve fitting based on the program PRISM, GraphPad Inc.).

AsPC-1 cells = experiment: AsPC-1 CTG proliferation assay (120 h) (pancreatic cancer, G12D); assay type: cell-based; conditions: Homo sapiens, ASPC1
Procedure: AsPC-1 CTG Proliferation Assay (120 h) (Pancreatic Cancer, G12D)
The CTG assay is designed to measure quantitatively the proliferation of AsPC-1 cells (ATCC […]), using the CellTiter Glow Assay Kit (Promega G7571). Cells are grown in RPMI medium (ATCC) supplemented with Fetal Calf Serum (Life Technologies, Gibco BRL, Cat. No. 10270-106). On “day 0” 2000 AsPC-1 cells are seeded in 60 μL RPMI ATCC+10% FCS+Penstrep in a 384-well plate, flat and clear bottom (Greiner, PNr. 781091). Cells are then incubated in the plates at 37° C. in a CO2 incubator overnight. On day 1, compounds (10 mM stock in DMSO) are added with the ECHO acoustic liquid handler system (Beckman Coulter), including DMSO controls. Plates are incubated for 120 h, and cell viability is measured using CellTiter-Glo luminescent cell viability reagent (Promega product code G7570). Viability (stated as percent of control) is defined as relative luminescence units RLU of each well divided by the RLU of cells in DMSO controls. IC50 values are determined from viability measurements by non-linear regression using a four-parameter model.

SAS cells = experiment: SAS CTG proliferation assay (120 h) (HNSCC, wt amplified); assay type: cell-based
Procedure: SAS CTG Proliferation Assay (120 h) (HNSCC, Wt Amplified)
SAS cells (JCRB0260) are dispensed into 384-well plates, flat and clear bottom (Greiner, PNr. 781091) at a density of 300 cells per well in 60 μL DMEM:F12 (Gibco 31330-038)+10% Fetal Calf Serum (HyClone, PNr.: SH30084.03) and incubated at 37° C. in a CO2 incubator overnight. The next day, compounds (10 mM stock in DMSO) are added with the ECHO acoustic liquid handler system (Beckman Coulter), including DMSO controls. Plates are incubated for 120 h, and cell viability is measured using CellTiter-Glo luminescent cell viability reagent (Promega product code G7570). Viability (stated as percent of control) is defined as relative luminescence units RLU of each well divided by the RLU of cells in DMSO controls. IC50 values are determined from viability measurements by non-linear regression using a four-parameter model.

[2] = Solubility measurement (DMSO solution method), McIlvaine buffer pH 4.5 or 6.8; assay type: physicochemical; conditions: aqueous buffer, kinetic from dmso stock, DMSO stock diluted to 250 μM, 24 h shaking at ambient temperature
Procedure: The DMSO solution is diluted with an aqueous medium (Mcllvaine buffer with pH=4.5 or 6.8) to a final concentration of 250 μM. After 24 h of shaking at ambient temperature a potentially formed precipitate is removed by filtration. The concentration of the test compound in the filtrate is determined by LC-UV methods by calibrating the signal to the signal of a reference solution with complete dissolution of the test compound in acetonitrile/water (1:1) with known concentration.

[3] = Caco-2 assay (permeability PappAB, PappBA, efflux ratio); assay type: in vitro ADME; conditions: human, Caco-2, 10 μM test compound, pH 7.4; for efflux ratio at 90 min, 10 μM: efflux ratio PappBA/PappAB, read-out: Caco ER; for Papp A→B at 90 min, 10 μM: apical to basolateral
Description: The assay provides information on the potential of a compound to pass the cell membrane, on the extent of oral absorption as well as on whether the compound is actively transported by uptake and/or efflux transporters. Permeability measurements across polarized, confluent Caco-2 cell monolayers grown on permeable filter supports (Corning, catalog #3391) are used. […] The receiver and donor compartments contain 0.25% bovine serum albumine (BSA) in assay buffer. Passive diffusion and/or active transport of compounds across the monolayer is measured in both apical to basolateral (a-b) and basolateral to apical (b-a) direction. a-b permeability (PappAB) represents drug absorption from the intestine into the blood and b-a permeability (PappBA) drug secretion from the blood back into the intestine via both passive permeability as well as active transport mechanisms mediated by efflux and uptake transporters that are expressed on the Caco-2 cells. After a pre-incubation of 25-30 min at 37° C., at predefined time points (0, 30, 60 and 90 min), samples were taken from the receiver and donor compartment, respectively. Concentrations of test compounds in samples were measured by HPLC/MS/MS, samples from the donor compartment were diluted 1:50 (v:v) with assay buffer, samples from receiver compartment were measured without dilution.
Apparent permeabilities in a-b (PappAB) and b-a (PappBA) directions are calculated according to the formula:
[formula] • Vrec [mL]: buffer volume in receiver compartment • Cdon [μmol/mL]: concentration of test compound in donor compartment at t=0 • ΔCrec: difference between concentrations of test compound in receiver compartment at start and end of incubation time • Δt: Incubation time • Vrec·ΔCrec/Δt [μmol/min]: Amount of compound transferred to receiver compartment per time • A [cm^2]: filter surface
Caco-2 efflux ratios (ER) are calculated as the ratio of PappBA/PappAB.

[4] = McIlvaine buffer pH 4.5, read-out: solubility pH 4.5
[5] = McIlvaine buffer pH 6.8, read-out: solubility pH 6.8

Row | Compound | IC50 [1] | IC50 (AsPC-1 cells) | IC50 (SAS cells) | solubility at 24 h [2, 4] | solubility at 24 h [2, 5] | efflux ratio at 90 min, 10 μM [3] | Papp A→B at 90 min, 10 μM [3]
1 | COC(=O)c1ccc(-c2cc(O[C@@H](C)[C@@H]3CCCN3C)nc(-c3noc4c3CCC[C@@]43CCCc4sc(N)c(C#N)c43)n2)o1 [II-114] | 99 nM | 2300 nM | 28 nM | 41 µg/mL (≈ 66.7 µM) | < 1 µg/mL | 0.9 | –
2 | Cc1cn(-c2cc(O[C@@H](C)[C@@H]3CCCN3C)nc(-c3noc4c3CCC[C@@]43CCCc4sc(N)c(C#N)c43)n2)nn1 [II-106] | 107 nM | 9450 nM | 96 nM | 107 µg/mL (≈ 187 µM) | 13 µg/mL (≈ 22.7 µM) | 1.1 | 15 ×10⁻⁶ cm/s
3 | C[C@H](Oc1cc(N2CC[C@@H](O)C2)nc(-c2noc3c2CCC[C@@]32CCCc3sc(N)c(C#N)c32)n1)[C@@H]1CCCN1C [II-66] | 71 nM | 3970 nM | 60 nM | > 117 µg/mL | 112 µg/mL (≈ 195 µM) | – | < 2.9 ×10⁻⁶ cm/s
4 | C[C@H](Oc1cc(-c2cn[nH]c2)nc(-c2noc3c2CCC[C@@]32CCCc3sc(N)c(C#N)c32)n1)[C@@H]1CCCN1C [II-87] | 150 nM | 3060 nM | 107 nM | – | – | – | < 1.7 ×10⁻⁶ cm/s
5 | C[C@H](Oc1cc([C@H]2CCOC2)nc(-c2noc3c2CCC[C@@]32CCCc3sc(N)c(C#N)c32)n1)[C@@H]1CCCN1C [II-88] | 15 nM | 1980 nM | 2220 nM | – | – | 1.8 | 12 ×10⁻⁶ cm/s
6 | C[C@H](Oc1cc(-n2ccc(C#N)n2)nc(-c2noc3c2CCC[C@@]32CCCc3sc(N)c(C#N)c32)n1)[C@@H]1CCCN1C [II-102] | 14 nM | 2770 nM | 71 nM | 24 µg/mL (≈ 41.3 µM) | < 1 µg/mL | – | –
7 | C[C@H](Oc1cc(N2CCCC3(COC3)C2)nc(-c2noc3c2CCC[C@@]32CCCc3sc(N)c(C#N)c32)n1)[C@@H]1CCCN1C [II-72] | 39 nM | 783 nM | 206 nM | > 146 µg/mL | 89 µg/mL (≈ 145 µM) | – | –
8 | C[C@H](Oc1cc(-c2cnn(C)c2)nc(-c2noc3c2CCC[C@@]32CCCc3sc(N)c(C#N)c32)n1)[C@@H]1CCCN1C [II-74] | 81 nM | 3210 nM | 192 nM | 57 µg/mL (≈ 99.9 µM) | 29 µg/mL (≈ 50.8 µM) | – | –
9 | C[C@H](Oc1cc(N2CCNC2=O)nc(-c2noc3c2CCC[C@@]32CCCc3sc(N)c(C#N)c32)n1)[C@@H]1CCCN1C [II-64] | 11 nM | 1070 nM | 16 nM | 40 µg/mL (≈ 69.6 µM) | 8 µg/mL (≈ 13.9 µM) | – | –
10 | C[C@H](Oc1cc(-c2cn(C3COC3)nn2)nc(-c2noc3c2CCC[C@@]32CCCc3sc(N)c(C#N)c32)n1)[C@@H]1CCCN1C [II-100] | 56 nM | 9770 nM | 3180 nM | 120 µg/mL (≈ 196 µM) | 57 µg/mL (≈ 92.9 µM) | – | –
11 | C[C@H](Oc1cc(-n2cc3c(n2)CCNC3)nc(-c2noc3c2CCC[C@@]32CCCc3sc(N)c(C#N)c32)n1)[C@@H]1CCCN1C [II-53] | 57 nM | 825 nM | 1720 nM | – | – | 22 | 1.5 ×10⁻⁶ cm/s
12 | C[C@H](Oc1cc(N2Cc3cnn(C)c3C2)nc(-c2noc3c2CCC[C@@]32CCCc3sc(N)c(C#N)c32)n1)[C@@H]1CCCN1C [II-63] | 266 nM | 3300 nM | 1310 nM | < 1 µg/mL | < 1 µg/mL | – | –
13 | C[C@H](Oc1cc(-n2ccnc2Cl)nc(-c2noc3c2CCC[C@@]32CCCc3sc(N)c(C#N)c32)n1)[C@@H]1CCCN1C [II-93] | 43 nM | 4640 nM | 366 nM | 97 µg/mL (≈ 164 µM) | 20 µg/mL (≈ 33.8 µM) | – | –
14 | C[C@H](Oc1cc(-c2ccncc2)nc(-c2noc3c2CCC[C@@]32CCCc3sc(N)c(C#N)c32)n1)[C@@H]1CCCN1C [II-78] | 87 nM | 2120 nM | 318 nM | 41 µg/mL (≈ 72.2 µM) | 3 µg/mL (≈ 5.28 µM) | – | –
15 | C[C@H](Oc1cc(C2=CCOCC2)nc(-c2noc3c2CCC[C@@]32CCCc3sc(N)c(C#N)c32)n1)[C@@H]1CCCN1C [II-67] | 38 nM | 2800 nM | 8 nM | 98 µg/mL (≈ 171 µM) | 41 µg/mL (≈ 71.6 µM) | – | –
16 | C[C@H](Oc1cc(N2CCOC3(CC3)C2)nc(-c2noc3c2CCC[C@@]32CCCc3sc(N)c(C#N)c32)n1)[C@@H]1CCCN1C [II-61] | 55 nM | 1550 nM | 169 nM | 111 µg/mL (≈ 184 µM) | 41 µg/mL (≈ 68.1 µM) | – | –
